We go through 1 molecule from patent EP0028117A1, “Guanidine compounds, process for preparing them and compositions containing them” (SMITH KLINE & FRENCH LABORATORIES LIMITED, priority 1979, dated 1981).

Molecules are shown by their SMILES. Where only a bound is given, the exact number is not on record here.

Test [1] has as its target T1, histamine H2-receptors (Cavia porcellus, UniProt P47747).
T1 construct: histamine-induced tachycardia in the isolated guinea pig atrium; from tissue; host or cells: isolated guinea pig atrium
The test can be described thus: Inhibition of histamine-induced tachycardia in the isolated guinea pig atrium. Conditions: read-out: effective dose producing 50% inhibition of the histamine-induced tachycardia. An excerpt: This procedure is referred to in Ash and Schild, Brit. J. Pharmac. Chemother., 1966. 27. […] For example, they inhibit the actions of histamine on the isolated guinea pig atrium.

For test [2], the system named is histamine H2-receptors. Kind of test: Inhibition of histamine-stimulated gastric acid secretion from lumen-perfused stomachs of anaesthetised rats. It is filed as in vivo. Conditions: i.v., lumen-perfused stomachs of rats anaesthetised with urethane.

T1 sequence (P47747 whole entry): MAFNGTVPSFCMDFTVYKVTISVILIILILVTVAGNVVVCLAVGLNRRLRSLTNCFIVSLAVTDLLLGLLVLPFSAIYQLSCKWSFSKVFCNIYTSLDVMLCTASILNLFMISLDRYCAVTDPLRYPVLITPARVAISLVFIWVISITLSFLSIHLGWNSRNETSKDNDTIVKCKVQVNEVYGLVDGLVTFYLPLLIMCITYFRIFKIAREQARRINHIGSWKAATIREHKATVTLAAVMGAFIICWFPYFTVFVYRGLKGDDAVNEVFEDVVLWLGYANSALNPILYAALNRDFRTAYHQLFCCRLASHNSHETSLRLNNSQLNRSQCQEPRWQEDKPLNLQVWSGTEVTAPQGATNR

For `N=C(N)Nc1nc(CSCCNc2[nH]ccc2[N+](=O)[O-])cs1` [Example 1, 2-[2-(2-Guanidino-4-thiazolylmethylthio)ethylamin]-3-nitropyrrole], the IC50 at histamine H2-receptors [1] was below 1000 nM. Also, the “doses causing 50% inhibition of maximal acid secretion” value with histamine H2-receptors [2] is given as “less than 0.1 micromole kg^-1”.
